“Also recorded” adds a separate entry of the source.
What was measured:
pork sodium-insulin = target: T1, pork sodium-insulin (Sus scrofa, UniProt P01315); assay: Controlled shaking of Na insulin solutions in test tubes, optical density at 600 nm; type: physicochemical; details: for Optical Density ± 1 × SE: Na insulin 50 U/ml, OD at 600 nm
T1 construct: pork sodium-insulin crystals (U.1000 neutral sodium insulin special pork obtained from Eli Lilly & Company); purchased Eli Lilly & Company U.1000 neutral sodium insulin special pork
T1 sequence (P01315 25-54 limits assumed): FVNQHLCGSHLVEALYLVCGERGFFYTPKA
T1 sequence (P01315 88-108 limits assumed): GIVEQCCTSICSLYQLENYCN
Protocol: In vitro testing of single component neutral pork zinc insulin was undertaken with a number of added agents. Solutions at about neutral pH and at acid pH were tested. In addition, some testing was also undertaken with Na insulin. The tests were conducted using plastic tybes (5 ml test tubes, Sarstedt, sealed by plastic caps covered with paraffin) each containing 2 ml of the insulin solutions noted below. The tubes were continuously agitated in a metabolic shaking incubator (Dubnoff E.C.A. Co.) at 60 to 80 r.p.m. and 37° C. for periods up to sixteen days. The sodium insulin solutions were made by dissolving pork sodium-insulin crystals (U.1000 neutral sodium insulin special pork obtained from Eli Lilly & Company) in the same diluting fluid as utilized with the zinc insulin. The solutions were adjusted to neutral or acid pH as indicated above. Final insulin concentration in all solutions was 2 mg/ml (50 U/ml). Insulin solutions with amino acid added were prepared by addition of the dry amino acids (Sigma Company) to the neutral zinc or sodium insulin solutions. Final concentration of the amino acid additives was 7 mg per ml of insulin solution. pH was adjusted, when necessary, to 7.5 for neutral insulin mixtures and to 3.3-3.5 for acid insulin mixtures. The various insulin solutions, both as made up without additives and with additives, were shaken as noted above for up to sixteen days, at which time the solutions were examined with an optical densitometer at a wave length 600 nm. The optical density (OD) of each solution was an indication of the amount of aggregation present after the shaking period. The higher the optical density, the greater the aggregation in that solution.

[1] = target: T2, single component neutral pork zinc insulin (Sus scrofa, UniProt P01315); assay: Controlled shaking of zinc insulin solutions in test tubes, optical density at 600 nm; type: physicochemical; details: for Optical Density ± 1 × SE: zinc insulin 50 U/ml, OD at 600 nm
T2 construct: single component, neutral, pork, zinc-insulin (U.500 regular Iletin II., Eli Lilly & Company); purchased Eli Lilly & Company U.500 regular Iletin II
T2 sequence (P01315 25-54 limits assumed): as the sequence (P01315 25-54 limits assumed) above
Protocol: In vitro testing of single component neutral pork zinc insulin was undertaken with a number of added agents. Solutions at about neutral pH and at acid pH were tested. In addition, some testing was also undertaken with Na insulin.
The tests were conducted using plastic tybes (5 ml test tubes, Sarstedt, sealed by plastic caps covered with paraffin) each containing 2 ml of the insulin solutions noted below. The tubes were continuously agitated in a metabolic shaking incubator (Dubnoff E.C.A. Co.) at 60 to 80 r.p.m. and 37° C. for periods up to sixteen days.
The zinc insulin solutions were prepared by appropriate dilutions of highly concentrated (500 U/ml) single component, neutral, pork, zinc-insulin (U.500 regular Iletin II., Eli Lilly & Company). The unbuffered diluting fluid contained glycerin, 16 mg/ml, and phenol, 2 mg/ml of distilled water (Eli Lilly & Company). […] Final insulin concentration in all solutions was 50 U/ml (2 mg/ml).
Insulin solutions with amino acid added were prepared by addition of the dry amino acids (Sigma Company) to the neutral zinc or sodium insulin solutions. Final concentration of the amino acid additives was 7 mg per ml of insulin solution. pH was adjusted, when necessary, to 7.5 for neutral insulin mixtures and to 3.3-3.5 for acid insulin mixtures.
Several non-amino carboxylic acids, i.e., lactic acid, acetic acid, and citric acid, were added under the same conditions of concentration and pH as described for the amino acids.
The various insulin solutions, both as made up without additives and with additives, were shaken as noted above for up to sixteen days, at which time the solutions were examined with an optical densitometer at a wave length 600 nm. The optical density (OD) of each solution was an indication of the amount of aggregation present after the shaking period. The higher the optical density, the greater the aggregation in that solution.

insulin = details: supplemental material added to insulin solution; cited from earlier work
[2] = Controlled shaking of insulin solutions in 2-week minipumps equipped with small diameter catheters; type: physicochemical; details: shaken 8 days at 37°
Protocol: Minipumps (Alzet Osmotic Minipump No. 2002, Alza Corporation, Palo Alto, Calif.) that release their contents ([…]) at a constant rate ([…]) over a minimum of 14 days were filled with insulin or amino acid-insulin solutions. The minipumps were weighed before and after filling to determine the initial inner fluid volume. A 5 cm vinyl catheter (Iv. soft medical polyvinyl tubing; i.D.=0.023 inch; Bolab Inc. Co., Derry, N.H.) was attached to the tubes' exterior beyond their flanges.
Acid and neutral insulin solutions were prepared with and without glutamic or aspartic acids as described in Example I except insulin concentrations were 120 U/ml (approximately 5 mg/ml). Glutamic and aspartic acids were added to a concentration of 7 mg/ml. The final pH's of the amino acid insulin solutions were 3.3-3.5.
Pumps with attached catheters were placed in a 5 ml plastic vial containing a cotton wad and sufficient saline to immerse and activate the pump. The catheter passed through a 0.5 ml air space at the top of the fluid in the tube, the terminal end being submerged in the saline. The tubes were sealed with a plastic cap covered with parafilm. They were shaken at 37° in a metabolic shaking incubator (Dubnoff E.C.A.) at 80-100 r.p.m. for periods up to 8 days. Pumps were removed from the tubes on the 8th day after shaking; catheters were examined for precipitates by eye and residual contents were removed and centrifuged in microtubes to evaluate the precipitate.

[3] = pH 3.3-3.5, shaken 16 days at 37° C.
[4] = pH 7.4, shaken 16 days at 37° C., higher OD = greater aggregation
[5] = agent added to insulin solution at acid pH 3.3-3.5

## N[C@@H](CC(=O)O)C(=O)O [Aspartic Acid]
Pork sodium-insulin; pH 3.5, shaken at 37° C.
  Optical Density ± 1 × SE: 0.10 ± 0.01
Pork sodium-insulin; acid pH
  Protective effect on Na insulin solutions (in words): some protective effect
[1]; agent added to insulin solution at acid pH 3.3-3.5, listed as Aspartic acid
  Protective effect against insulin aggregation (in words): more effective than glutamic acid; also recorded: particularly effective in protecting insulin solutions from aggregation
[1]; agent added to insulin solution at acid pH 3.3-3.5, listed as aspartic acid
  Protective effect against insulin aggregation (in words): prevented the development of any appreciable aggregation throughout the entire experiment
[1]; agent added to insulin solution at neutral pH (about pH 7, pH 7.4)
  Protective effect against insulin aggregation (in words): do not offer any effective protection; also recorded: the protective effect of the agents are no longer apparent
[1]; [3]
  Optical Density ± 1 × SE: 0.084 ± 0.009
[1]; [4]
  Optical Density ± 1 × SE: 0.51 ± 0.078

## N[C@@H](CCC(=O)O)C(=O)O [Glutamic Acid]
Pork sodium-insulin; pH 3.5, shaken at 37° C.
  Optical Density ± 1 × SE: 0.13 ± 0.03
[1]; agent added to insulin solution at acid pH 3.3-3.5, listed as Glutamic acid
  Protective effect against insulin aggregation (in words): prevented the development of any appreciable aggregation throughout the entire experiment
[1]; agent added to insulin solution at acid pH 3.3-3.5, listed as glutamic acid
  Protective effect against insulin aggregation (in words): particularly effective in protecting insulin solutions from aggregation
[1]; agent added to insulin solution at neutral pH (about pH 7, pH 7.4), listed as Glutamic acid
  Protective effect against insulin aggregation (in words): do not offer any effective protection
[1]; agent added to insulin solution at neutral pH (about pH 7, pH 7.4), listed as glutamic acid
  Protective effect against insulin aggregation (in words): the protective effect of the agents are no longer apparent
[1]; [3]
  Optical Density ± 1 × SE: 0.123 ± 0.02
[1]; [4]
  Optical Density ± 1 × SE: 0.717 ± 0.266

## NCC(=O)O [Glycine]
[1]; [5]
  Protective effect against insulin aggregation (in words): no protective effect was noted
[1]; [3]
  Optical Density ± 1 × SE: 0.28 ± 0.04
[1]; [4]
  Optical Density ± 1 × SE: 0.66 ± 0.095
insulin
  Effect in preventing the aggregation of insulin in solution over extended periods of time: do not appear to have any appreciable effect

## N[C@@H](Cc1c[nH]cn1)C(=O)O [Histidine]
[1]; [5]
  Protective effect against insulin aggregation (in words): no protective effect was noted
[1]; [4]
  Optical Density ± 1 × SE: 0.245 ± 0.08
insulin
  Effect in preventing the aggregation of insulin in solution over extended periods of time: do not appear to have any appreciable effect

## Na Insulin: pork sodium-insulin crystals (U.1000 neutral sodium insulin special pork, Eli Lilly & Company) in solution, no agent added
Pork sodium-insulin; pH 3.5, shaken at 37° C.
  Optical Density ± 1 × SE: 0.128 ± 0.02
Pork sodium-insulin; pH 7.4, shaken at 37° C.
  Optical Density ± 1 × SE: 0.18 ± 0.02
Pork sodium-insulin; pH 3.3-3.5
  Aggregation of Na insulin (in words): less than at pH 7.4 but is nevertheless appreciable
Pork sodium-insulin; pH 7.4, by 16 days
  Aggregation of Na insulin (in words): also aggregates; also recorded: aggregation is less than that seen for neutral zinc insulin at the same pH

## Neutral Single Component Zinc Insulin: single component, neutral, pork, zinc-insulin (U.500 regular Iletin II, Eli Lilly & Company), diluted, no agent added
[1]; acidified (pH 2.9-3.3), unbuffered
  Time at which aggregates appeared: by the fourth day
[1]; pH 2.9-3.3, unbuffered, through day 16
  Aggregation of acidified unbuffered insulin solution (in words): the aggregation was as great through day 16 as unacidified solutions
[1]; pH 2.9-3.3, shaken 16 days at 37° C.
  Optical Density ± 1 × SE: 0.181 ± 0.03
[1]; [4]
  Optical Density ± 1 × SE: 0.603 ± 0.08
[2]; pH 3.3, 120 U/ml, of 6 pumps
  Number of Pumps with Aggregates in Catheter: 4
  Number of Pumps with Precipitates: 0
[2]; pH 7.4, 120 U/ml, of 3 pumps
  Number of Pumps with Aggregates in Catheter: 3
  Number of Pumps with Precipitates: 3
